{"source": "patent EP0487382A1", "about": "“Use of buflomedil for the protection of the myocardium by coronary angioplasty” (LABORATOIRE L. LAFON, priority 1990, dated 1992)", "key": {"chiens [1]": {"system": "chiens", "assay": "Coronary balloon angioplasty occlusion (15 min) and reperfusion in anaesthetised dogs, first series", "type": "in vivo", "procedure": "(§1) 1 - On a réalisé des essais comparatifs chez des chiens auxquels on a administré par voie intraveineuse en 15 minutes : • soit du buflomédil (chlorhydrate) à la dose de 10 mg/kg; • soit un placebo.\nLe protocole opératoire était le suivant :\n(§2) les chiens ont reçu une prémédication consistant en 1,0 mg par kg de sulfate de morphine après une nuit de diète ainsi que 325 mg d'aspirine par voie orale.\n(§3) Les chiens ont été anesthésiés avec 12,5 mg/kg de thiopental et 72 mg/kg de chloralose par voie intraveineuse. On met en place un cathéter au niveau de l'artère fémorale pour la mesure de la pression artérielle et une canule sur la veine fémorale pour l'administration du produit à tester. L'artère carotide gauche reçoit une canule pour la mise en place du cathéter d'angioplastie, tandis que l'on met en place un cathéter au niveau du ventricule gauche via l'artère fémorale contralatérale.\nLes animaux sont alors héparinisés avec 500 unités U.I. par kg par voie I.V. On procède alors à l'administration du produit à tester ou du placebo à raison, pour le buflomédil, de 10 mg par mn. On administre ensuite de la lidocaïne par voie I.V. à raison de 1 mg/kg sous forme de bolus, puis par perfusion à raison de 1 mg par mn. […]"}, "chiens [2]": {"system": "chiens", "assay": "Coronary balloon occlusion (15 min) with follow-up of reperfusion in dogs, second series", "type": "in vivo", "details": "10 mg/kg i.v.", "procedure": "as §1, §2, §3\nLes animaux sont alors héparinisés avec 500 unités U.I. par kg par voie I.V. On procède alors à l'administration du produit à tester ou du placebo à raison, pour le buflomédil, de 10 mg par mn. On administre ensuite de la lidocaïne par voie I.V. à raison de 1 mg/kg sous forme de bolus, puis par perfusion à raison de 1 mg par mn.\n30 mn après la fin de la perfusion, on met en place un ballonnet d'angioplastie de 2,5-3,5 mm choisi en fonction de la taille des artères coronaires dans l'artère coronaire descendante antérieure gauche. Le ballon a été gonflé à une pression de 4.10⁵ Pa pendant 15 mn.\n2 - Dans une deuxième série d'essais comparatifs, on a utilisé le même mode opératoire et les mêmes produits (buflomédil chlorhydrate à la dose de 10 mg/kg d'une part et placebo d'autre part) et on a suivi la reperfusion après 15 minutes d'occlusion avec un ballonnet."}, "[3]": {"details": "at the end of the occlusion, versus placebo"}}}
{"compound": "COc1cc(OC)c(C(=O)CCCN2CCCC2)c(OC)c1", "note": "[buflomédil, 4-(1-pyrrolidinyl)-1-(2,4,6-triméthoxyphényl)-1-butanone]", "values": [{"measurement": "flux sanguins tissulaires au niveau du myocarde", "setting": "chiens [1]; 10 mg/kg i.v., measured during ischaemia in the ischaemic regions, versus placebo (Figure)", "value": "plus élevés"}, {"measurement": "fibrillation ventriculaire lors de la reperfusion", "setting": "chiens [1]; buflomédil (chlorhydrate) 10 mg/kg i.v. over 15 min, 15 min balloon occlusion, placebo: 4 cas sur 10", "value": "n'a pas observé de fibrillation ventriculaire"}, {"measurement": "fraction d'éjection", "setting": "chiens [2]; 30 minutes after reperfusion, placebo 69 %", "value": "89 % de la valeur normale du groupe"}, {"measurement": "fraction d'éjection", "setting": "chiens [2]; 60 minutes after reperfusion, placebo 74 %", "value": 95, "unit": "%"}, {"measurement": "zone de dysfonctionnement", "setting": "chiens [2]; after reperfusion, versus placebo", "value": "diminution"}, {"measurement": "fraction d'éjection", "setting": "chiens [2]; [3]", "value": "n'a pas observé à la fin de l'occlusion de différence"}, {"measurement": "perfusion sanguine transmurale", "setting": "chiens [2]; [3]", "value": "n'a pas observé à la fin de l'occlusion de différence"}, {"measurement": "flux pendant la reperfusion", "setting": "chiens [2]; during reperfusion, versus placebo", "value": "flux accru"}]}
